In brackets after ≈: the same amount, converted by molar mass. Where a name gives a salt, the structure may show the parent alone. Read-outs that look alike come from different tables or passages of the source.
Experiments:
Format in all cases: cell-based
[1] = system: Bacillus subtilis (ATCC 23857); assay: MIC determination, microbroth dilution
[2] = system: Neisseria meningitides (ATCC 13077); assay: Disc diffusion assay; settings: ATCC13077, 4 μg per disc, read-out: Zone of inhibition N.m.
[3] = system: Bacillus anthracis, Sterne 34F2; assay: microbe, parasite or virus in culture; settings: STERNE34F2, read-out: MIC B.a.
[4] = system: Haemophilus influenza (ATCC 49247); assay: microbe, parasite or virus in culture; settings: ATCC49247; Haemophilus influenza; 4 μg per disc; range of at least two experiments; read-out: Zone of inhibition H.i.
[5] = system: Proteus vulgaris (ATCC 33420); assay: MIC determination, microbroth dilution; settings: ATCC33420
[6] = system: Burkholderia cepacia (ATCC 25416); assay: MIC determination, microbroth dilution; settings: Burkholderia cepacia
[7] = system: M. tuberculosis clinical isolates; assay: microbe, parasite or virus in culture; settings: Mycobacterium tuberculosis
[8] = system: Neisseria gonorrhoeae (ATCC 49226); assay: Disc diffusion assay; settings: ATCC49226, 4 μg per disc, read-out: Zone of inhibition N.g.
[9] = system: Stenotrophomonas maltophilia (ATCC 13637); assay: MIC determination, microbroth dilution
[10] = system: Streptococcus pyogenes (ATCC 700294); assay: MIC determination, microbroth dilution
[11] = system: Enterococcus faecalis (ATCC 33186); assay: MIC determination, microbroth dilution; settings: ATCC33186; Enterococcus faecalis (ATCC 33186); read-out: MIC E.f.
[12] = system: Pseudomonas aeruginosa (PA01); assay: MIC determination, microbroth dilution
Bacillus anthracis = assay: microbe, parasite or virus in culture; settings: read-out: MIC B.a.
[13] = system: Staphylococcus aureus (ATCC 29213); assay: MIC determination, microbroth dilution; settings: ATCC29213; Staphylococcus aureus (ATCC 29213); read-out: MIC S.a.
[14] = system: Streptococcus pneumoniae (R6); assay: MIC determination, microbroth dilution; settings: read-out: MIC S. pn.
Listeria monocytogenes = assay: MIC determination (Table 6)
[15] = system: MRSA, Staphylococcus aureus (NRS70); assay: MIC determination, microbroth dilution; settings: read-out: MIC MRSA
Moraxella catarrhalis = assay: MIC determination (Table 6)
[16] = system: Proteus mirabilis (ATCC 25933); assay: MIC determination, microbroth dilution; settings: ATCC25933
[17] = system: Legionella pneumophila (ATCC 33153); assay: microbe, parasite or virus in culture; settings: ATCC33153, 72 h, read-out: Zone of inhibition L.p.
[18] = system: Escherichia coli (ATCC 700926); assay: MIC determination, microbroth dilution; settings: ATCC700926; Escherichia coli (ATCC 700926); read-out: MIC E.c.
[19] = system: Klebsiella pneumoniae (ATCC 33495); assay: MIC determination, microbroth dilution; settings: ATCC33495
[20] = system: acinetobacter baumannii (ATCC 19606); assay: MIC determination, microbroth dilution; settings: ATCC19606
E. coli K12 ΔtolC = assay: microbe, parasite or virus in culture; settings: Escherichia coli, read-out: MIC E.c. Δtolc
[21] = ATCC23857, Bacillus subtilis (ATCC 23857), read-out: MIC B.s.
[22] = ATCC25416, read-out: MIC B.c., Burkholderia cepacia, Table 6
[23] = ATCC13637, Stenotrophomonas maltophilia (ATCC 13637), read-out: MIC S.m.
[24] = ATCC700294, Streptococcus pyogenes (ATCC 700294), read-out: MIC S. py.
[25] = ATCC25416, read-out: MIC B.c., Burkholderia cepacia (ATCC 25416)

Structure (SMILES) | MIC [1, 21] [µg/mL] | zone of inhibition at 4 µg/disc [2] [mm] | MIC [3] [µg/mL] | zone of inhibition at 4 µg/disc [4] [mm] | MIC [5] [µg/mL] | MIC [6, 22] [µg/mL] | MIC ([7]; H37RV, read-out: MIC H37Rv) [µg/mL] | zone of inhibition at 4 µg/disc [8] [mm] | MIC [9, 23] [µg/mL] | MIC [10, 24] [µg/mL] | MIC [12] [µg/mL] | MIC (Bacillus anthracis) [µg/mL] | MIC [13] [µg/mL] | MIC ([14]; Streptococcus pneumoniae (R6)) [µg/mL] | MIC (Listeria monocytogenes) [µg/mL] | MIC (Moraxella catarrhalis) [µg/mL] | MIC [16] [µg/mL] | zone of inhibition at 4 µg/disc [17] [mm] | MIC [18] [µg/mL] | MIC [6, 25] [µg/mL] | also measured
CN[C@@H]1[C@H](O)[C@H](NC)[C@H]2O[C@]3(O)[C@H](O[C@@H]2[C@H]1O)O[C@H](C)C[C@@]3(O)CNCc1cccc(OC(F)(F)F)c1 [compound 25, 3′-(R)-3′-[(3-trifluoromethoxyl)benzylaminomethyl)]dihydrospectinomycin Trihydrochloride] | 12.5 to 25 | 18 | 25 | 9 to 10 | > 200 | > 200 | 200 | 18 | 12.5 to 25 | 1.6 | 50 to 100 | 25 | 25 to 50 | 1.6 to 3.1 | 6.3 | 6.3 | > 200 | 19 |  |  | MIC [11]: 12.5 to 25 µg/mL; MIC ([15]; Staphylococcus aureus (NRS70)): 50 µg/mL
CN[C@@H]1[C@H](O)[C@H](NC)[C@H]2O[C@]3(O)[C@H](O[C@@H]2[C@H]1O)O[C@H](C)C[C@@]3(O)CNCCc1cccs1 [compound 61, 3′-(R)-3′-[((2-(thiophen-2-yl)ethyl)aminomethyl]dihydrospectinomycintrihydrobromide] | 6.3 | 14 | 12.5 to 50 | 14 | 100 to 200 | ≥ 200 | 6.3 | 13 | 12.5 | 12.5 | > 200 | 12.5 to 50 | 12.5 | 6.3 | 6.3 | 1.6 | 200 | 30 | 25 | ≥ 200 | MIC ([7]; read-out: MIC TN022): 6.3 µg/mL; MIC ([7]; read-out: MIC TN026): 6.3 µg/mL; MIC [19]: 50 µg/mL; MIC [20]: > 200 µg/mL; MIC (E. coli K12 ΔtolC): 3.1 to 6.3 µg/mL; MIC ([15]; Staphylococcus aureus (NRS70)): 25 to 50 µg/mL
CN[C@@H]1[C@H](O)[C@H](NC)[C@H]2O[C@]3(O)[C@H](O[C@@H]2[C@H]1O)O[C@H](C)C[C@@]3(O)CNCCc1ccc[nH]1 [compound 62, 3′-(R)-3′-[((2-(1H-pyrrol-2-yl)ethyl)aminomethyl]dihydrospectinomycintetrahydrobromide] | 6.3 | 0 | 25 | 0 | 50 to 100 | > 200 | 50 | 0 | 6.3 | 200 | > 200 | 25 | 25 | 100 | 25 | 12.5 | 200 | 12 | 50 | > 200 | MIC ([7]; read-out: MIC TN022): 25 µg/mL; MIC ([7]; read-out: MIC TN026): 100 µg/mL; MIC [19]: 100 to 200 µg/mL; MIC [20]: > 200 µg/mL; MIC (E. coli K12 ΔtolC): 12.5 µg/mL; MIC ([15]; Staphylococcus aureus): 12.5 to 25 µg/mL
CN[C@@H]1[C@H](O)[C@H](NC)[C@H]2O[C@]3(O)[C@H](O[C@@H]2[C@H]1O)O[C@H](C)C[C@@]3(O)CNCCc1nccs1 [compound 64, 3′-(R)-3′-[((2-(thiazol-2-yl)ethyl)aminomethyl]dihydrospectinomycintetrahydrobromide] | 12.5 to 25 | 11 | 50 | 11 | > 200 | > 200 | 1.6 | 8 | 25 to 50 | 25 | > 200 | 50 | 50 to 100 | 12.5 | 12.5 | 3.1 | > 200 | 33 | 50 to 100 | > 200 | MIC ([7]; read-out: MIC TN022): 1.6 µg/mL; MIC ([7]; read-out: MIC TN026): 1.6 µg/mL; MIC [19]: 100 to 200 µg/mL; MIC [20]: > 200 µg/mL; MIC (E. coli K12 ΔtolC): 25 to 50 µg/mL; MIC ([15]; Staphylococcus aureus (NRS70)): > 200 µg/mL
CN[C@@H]1[C@H](O)[C@H](NC)[C@H]2O[C@]3(O)[C@H](O[C@@H]2[C@H]1O)O[C@H](C)C[C@@]3(O)CNCC(C)c1ccccc1 (stereo partly shown) [compound 65] |  | 13 | 12.5 (≈ 26 µM) | 10 | > 200 | ≥ 200 | 50 (≈ 104 µM) | 12 |  |  | > 200 | 12.5 (≈ 26 µM) | 25 (≈ 51.9 µM) |  | 12.5 (≈ 26 µM) | 3.1 (≈ 6.44 µM) | > 200 | 22 | 50 (≈ 104 µM) | ≥ 200 | MIC ([1]; Bacillus subtilis, ATCC23857, read-out: MIC B.s.): 12.5 µg/mL (≈ 26 µM); MIC ([7]; read-out: MIC TN022): 100 µg/mL (≈ 208 µM); MIC ([7]; read-out: MIC TN026): 100 µg/mL (≈ 208 µM); MIC [19]: > 200 µg/mL; MIC ([9]; Stenotrophomonas maltophilia, ATCC13637, read-out: MIC S.m.): 12.5 µg/mL (≈ 26 µM); MIC ([10]; Streptococcus pyogenes, ATCC700294, read-out: MIC S. py.): 12.5 µg/mL (≈ 26 µM); MIC ([14]; Streptococcus pneumoniae): 12.5 µg/mL (≈ 26 µM); MIC [20]: > 200 µg/mL; MIC (E. coli K12 ΔtolC): 6.3 to 12.5 µg/mL (≈ 13.1 to 26 µM); MIC ([15]; Staphylococcus aureus): 12.5 to 25 µg/mL (≈ 26 to 51.9 µM)
